Data taken from publication PMC10215199 (Antioxidants, 2023).
Where a name gives a salt, the structure may show the parent alone.

Tests used:
recombinant human MAO-A = biological target: T1, recombinant human MAO-A (Homo sapiens, UniProt P21397); experiment: Monoamine oxidase-A inhibition assay (Amplex red fluorescence); assay type: biochemical; settings: ±sem; for inhibition at 1 µM: single dose concentration of 1 µM, NI = no measured inhibition, read-out: % Inhibition MAO-A; for MAO-A % Inhibition / inhibition at 100 µM: single dose concentration of 100 µM; for MAO-A % Inhibition: 100 µM; for inhibition at 100 µM: read-out: MAO-A % Inhibition; for IC50: read-out: MAO-A IC50
T1 sequence (P21397 1-527): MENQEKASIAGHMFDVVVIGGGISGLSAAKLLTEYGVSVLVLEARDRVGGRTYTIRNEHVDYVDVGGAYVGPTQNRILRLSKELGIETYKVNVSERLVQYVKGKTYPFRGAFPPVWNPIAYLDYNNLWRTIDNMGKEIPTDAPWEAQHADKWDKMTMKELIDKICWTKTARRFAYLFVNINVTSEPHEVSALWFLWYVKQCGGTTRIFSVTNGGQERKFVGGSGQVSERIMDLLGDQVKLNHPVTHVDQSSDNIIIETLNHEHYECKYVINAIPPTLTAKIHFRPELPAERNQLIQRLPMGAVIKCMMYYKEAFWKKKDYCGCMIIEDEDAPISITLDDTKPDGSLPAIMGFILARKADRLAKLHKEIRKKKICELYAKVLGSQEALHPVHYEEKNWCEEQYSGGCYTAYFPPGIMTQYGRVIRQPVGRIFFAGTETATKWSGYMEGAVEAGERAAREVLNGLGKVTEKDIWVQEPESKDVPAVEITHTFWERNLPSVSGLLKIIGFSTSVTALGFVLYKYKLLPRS
Description: Two isoforms of MAOs, namely MAO-A and MAO-B, are expressed in CNS, showing different substrate specificity. Consequently, different pharmacological effects can be elicited depending on the inhibited MAO isoform. Therefore, the prepared O^6-aminoalkyl-hispidol analogs were evaluated against both recombinant human MAO-A and MAO-B isoforms following the well-established spectrophotometric method.
2. Biological evaluations
2.1. In vitro assay of human monoamine oxidases inhibition
The MAO activity was quantified by measuring fluorescence intensity evoked by Amplex red reaction in which Amplex red reacts with hydrogen peroxide from the MAO reaction to produce highly fluorescent resorufin. The test compound in DMSO (final concentration: 1 nM – 10 μM or 10 nM – 100 μM ) and hMAO enzyme (Sigma Aldrich, St. Louis, MO, USA) in 50 mM sodium phosphate buffer (pH 7.4, final protein amount: ~1.25 μg of MAO-A/well and 2.5 μg of MAO-B/well) were loaded on 96-well black plate and incubated for 15 min at 37 °C. Then working solution of 200 μM Amplex Red (Cayman, Ann Arbor, MI, USA), 1 U/mL horseradish peroxidase (Sigma-Aldrich) and 1 mM substrate (p-tyramine for MAO-A, benzylamine for MAO-B, Sigma-Aldrich) in 50 mM sodium phosphate buffer (pH 7.4) was added and incubated for 20 min at 37 °C in the dark. The fluorescence was measured using a microplate reader (SpectraMax®i3, Molecular Device, San Jose, CA, USA) with an excitation at 545 nm and an emission at 590 nm. […]
(§1) of compounds were determined as the mean ± S.E.M. in triplicate from the dose-response inhibition curves using SigmaPlot® 13.0.

recombinant human MAO-B = biological target: T2, recombinant human MAO-B (Homo sapiens, UniProt P27338); experiment: biochemical; settings: for inhibition at 10 µM: single dose concentration of 10 µM; for inhibition at 10 µM / IC50: ±sem; for IC50: five doses
T2 construct: purchased Sigma Aldrich
T2 sequence (P27338 1-520): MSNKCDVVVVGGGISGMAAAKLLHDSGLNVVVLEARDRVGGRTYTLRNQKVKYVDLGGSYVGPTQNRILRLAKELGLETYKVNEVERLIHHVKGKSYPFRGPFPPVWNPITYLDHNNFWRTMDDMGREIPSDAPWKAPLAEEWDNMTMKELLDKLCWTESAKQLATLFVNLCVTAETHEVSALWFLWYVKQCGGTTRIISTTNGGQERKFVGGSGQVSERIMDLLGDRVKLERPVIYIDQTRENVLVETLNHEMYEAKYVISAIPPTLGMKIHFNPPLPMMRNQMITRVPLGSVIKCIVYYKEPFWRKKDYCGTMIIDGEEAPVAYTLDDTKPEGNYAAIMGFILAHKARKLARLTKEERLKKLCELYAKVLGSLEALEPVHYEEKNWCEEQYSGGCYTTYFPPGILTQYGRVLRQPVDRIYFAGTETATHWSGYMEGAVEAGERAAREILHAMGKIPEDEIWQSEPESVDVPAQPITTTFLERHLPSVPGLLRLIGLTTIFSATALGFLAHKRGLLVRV

[1] = biological target: T3, acetylcholinesterase (AChE) (Mus musculus, UniProt P21836); experiment: Acetylcholinesterase inhibition assay (Ellman, mouse whole brain homogenate); assay type: biochemical; settings: ±SD
T3 construct: The supernatant obtained was used as a source of enzyme for; from tissue; host or cells: whole brain of male ICR mice, supernatant of the homogenate
T3 sequence (P21836 32-614): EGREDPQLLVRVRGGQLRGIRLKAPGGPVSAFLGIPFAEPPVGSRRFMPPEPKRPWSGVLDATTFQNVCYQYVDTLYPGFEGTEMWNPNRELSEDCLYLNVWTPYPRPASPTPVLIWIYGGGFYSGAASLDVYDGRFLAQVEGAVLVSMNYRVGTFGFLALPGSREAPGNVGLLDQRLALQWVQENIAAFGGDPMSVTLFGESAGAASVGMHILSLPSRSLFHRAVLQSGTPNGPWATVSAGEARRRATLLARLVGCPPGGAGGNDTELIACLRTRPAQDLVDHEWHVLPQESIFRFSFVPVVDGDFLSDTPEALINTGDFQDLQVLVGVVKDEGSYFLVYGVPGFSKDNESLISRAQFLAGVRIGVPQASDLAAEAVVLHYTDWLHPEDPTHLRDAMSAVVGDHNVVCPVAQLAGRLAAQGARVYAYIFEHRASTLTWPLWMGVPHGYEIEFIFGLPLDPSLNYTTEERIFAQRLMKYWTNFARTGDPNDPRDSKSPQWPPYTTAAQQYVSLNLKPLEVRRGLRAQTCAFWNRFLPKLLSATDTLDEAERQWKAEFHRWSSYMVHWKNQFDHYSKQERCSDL
Description: as §1
2.2. In vitro acetylcholinesterase inhibition assay
(Eyela, Japan) containing 50 volumes of phosphate buffer (pH 8.0, 0.1 M), and then centrifuged at 14,000 rpm for 20 min at 4 °C. The supernatant obtained was used as a source of enzyme for the assay. Each drug was initially dissolved in dimethyl sulfoxide (DMSO) and diluted to various concentrations immediately before use. An aliquot of diluted drug solution was then mixed wit h 640 μL of phosphate buffer (0.1 M, pH 8.0), 25 μL of buffered Ellman’s reagent (10 mM 5,5′- dithio-bis(2-nitrobenzoic acid) and 15 mM sodium bicarbonate), and the enzyme source (100 μL) and pre-incubated at room temperature for 10 min. Then 5 μL of acetylthiocholine iodide solution (75 mM) was added to this mixture and mixed. Absorbance was measured at 410 nm after 10 min for the reaction adding 5 μL of acetylthiocholine iodide solution (75 mM) and to the reaction mixtures (OPTIZEN 2120UV, Mecasys Co. Ltd, Korea).

| SMILES | inhibition at 1 µM (recombinant human MAO-A) | inhibition at 10 µM (recombinant human MAO-B) | other results |
| --- | --- | --- | --- |
| COc1ccccc1/C=C1\Oc2cc(OCCN3CCCC3)ccc2C1=O [Compound 3ab] | < 0% | 43 ± 0.55% | – |
| COc1ccccc1/C=C1\Oc2cc(OCCCN3CCCC3)ccc2C1=O [Compound 3ac] | 1.31 ± 0.82% | 32.27 ± 0.23% | – |
| CCN(CC)CCOc1ccc2c(c1)O/C(=C\c1cccc(OC)c1)C2=O [Compound 3ad] | < 0% | 46.09 ± 0.11% | – |
| CCN(CC)CCCOc1ccc2c(c1)O/C(=C\c1cccc(OC)c1)C2=O [Compound 3ae] | < 0% | 18.8 ± 0.45% | – |
| COc1cccc(/C=C2\Oc3cc(OCCN4CCCC4)ccc3C2=O)c1 [Compound 3af] | < 0% | 39.1 ± 0.96% | – |
| COc1cccc(/C=C2\Oc3cc(OCCCN4CCCC4)ccc3C2=O)c1 [Compound 3ag] | 12.2 ± 1.05% | 16.99 ± 0.11% | – |
| COc1cccc(/C=C2\Oc3cc(OCCCN4CCCCC4)ccc3C2=O)c1 [Compound 3ah] | < 0% | 18.1 ± 1.83% | – |
| COc1cccc(/C=C2\Oc3cc(OCCN4CCOCC4)ccc3C2=O)c1 [Compound 3ai] | 4.1 ± 0.48% | 27.9 ± 0.37% | – |
| COc1ccc(/C=C2\Oc3cc(OCCN4CCCC4)ccc3C2=O)cc1 [Compound 3aj] | 3.26 ± 0.75% | 39.26 ± 0.03% | – |
| COc1ccc(/C=C2\Oc3cc(OCCCN4CCCC4)ccc3C2=O)cc1 [Compound 3ak] | 9.83 ± 0.64% | 45.64 ± 0.08% | – |
| COc1ccc(/C=C2\Oc3cc(OCCCCN4CCCC4)ccc3C2=O)cc1 [Compound 3al] | < 0% | 49.8 ± 0.02% | MAO-A % Inhibition (recombinant human MAO-A): 14.89 ± 3.46%; inhibition at 100 µM (recombinant human MAO-A): ~15%; IC50 (recombinant human MAO-A): > 100 µM; MAO-B Selectivity Index (recombinant human MAO-B; calculated from MAO-A and MAO-B IC50 values): >12; IC50 (recombinant human MAO-B): 8.65 ± 0.196 µM; IC50 [1]: 1.42 ± 0.09 µM |
| COc1ccc(/C=C2\Oc3cc(OCCN4CCCCC4)ccc3C2=O)cc1 [Compound 3am] | 0.92 ± 0.83% | 20.6 ± 0.79% | – |
| COc1ccc(/C=C2\Oc3cc(OCCN4CCCC4)ccc3C2=O)cc1OC [Compound 3an] | < 0% | 48.1 ± 1.46% | – |
| COc1ccc(/C=C2\Oc3cc(OCCCN4CCCC4)ccc3C2=O)cc1OC [Compound 3ao] | < 0% | 39.2 ± 0.58% | – |
| COc1ccc(/C=C2\Oc3cc(OCCN4CCCCC4)ccc3C2=O)cc1OC [Compound 3ap] | < 0% | 50.81 ± 0.44% | MAO-A % Inhibition (recombinant human MAO-A): 22.52 ± 0.04%; inhibition at 100 µM (recombinant human MAO-A): ~23%; IC50 (recombinant human MAO-A): > 100 µM; IC50 (recombinant human MAO-B): 10.18 ± 0.099 µM |
| COc1ccc(/C=C2\Oc3cc(OCCCN4CCCCC4)ccc3C2=O)cc1OC [Compound 3aq] | < 0% | 4.51 ± 1.3% | – |
| COc1ccc(/C=C2\Oc3cc(OCCCCN4CCCCC4)ccc3C2=O)cc1OC [Compound 3ar] | < 0% | 3.89 ± 1.63% | – |
| COc1ccc(/C=C2\Oc3cc(OCCCCCN4CCCCC4)ccc3C2=O)cc1OC [Compound 3as, (Z)-2-(3,4-Dimethoxybenzylidene)-6-(5-(piperidin-1-yl)pentoxy)benzofuran-3(2H)-one hydrochloride] | < 0% | 4.76 ± 1.91% | – |
| COc1cc(/C=C2\Oc3cc(OCCN4CCCC4)ccc3C2=O)cc(OC)c1 [Compound 3at] | < 0% | 36.8 ± 0.44% | – |
| COc1cc(/C=C2\Oc3cc(OCCCN4CCCC4)ccc3C2=O)cc(OC)c1 [Compound 3au] | < 0% | 21.2 ± 0.3% | – |
| COc1cccc(/C=C2\Oc3cc(OCCN4CCCC4)ccc3C2=O)c1OC [Compound 3av] | 12.6 ± 0.32% | 2.61 ± 1.78% | – |
| COc1ccc(/C=C2\Oc3cc(OCCN4CCCC4)ccc3C2=O)c(OC)c1 [Compound 3aw] | 12.7 ± 0.54% | 41.6 ± 1.03% | – |
| COc1ccc(OC)c(/C=C2\Oc3cc(OCCN4CCCC4)ccc3C2=O)c1 [Compound 3ax] | < 0% | 65.05 ± 0.43% | inhibition at 100 µM (recombinant human MAO-A): ~28%; IC50 (recombinant human MAO-A): > 100 µM; IC50 (recombinant human MAO-B): 3.16 ± 0.036 µM |
| COc1cccc(/C=C2\Oc3cc(OCCCN4CCCC4)ccc3C2=O)c1OC [Compound 3ay] | < 0% | 4.37 ± 0.9% | – |
| COc1ccc(/C=C2\Oc3cc(OCCCN4CCCC4)ccc3C2=O)c(OC)c1 [Compound 3az] | < 0% | 35.87 ± 0.17% | – |
| COc1ccc(OC)c(/C=C2\Oc3cc(OCCCN4CCCC4)ccc3C2=O)c1 [Compound 3ba] | < 0% | 20.3 ± 0.49% | – |
| COc1ccc(/C=C2\Oc3cc(OCCN4CCCC4)ccc3C2=O)c(OC)c1OC [Compound 3bb] | < 0% | 23.9 ± 0.81% | – |
| COc1cc(/C=C2\Oc3cc(OCCN4CCCCC4)ccc3C2=O)cc(OC)c1OC [Compound 3bd] | < 0% | 27.9 ± 0.36% | – |
